Reference: ChEMBL document CHEMBL4190339, “Design, synthesis and preliminary biological evaluation of new [1,2,3]triazolo[4,5-d]pyrimidine/thiourea hybrids as antiproliferative agents” (Eur J Med Chem, 2017)

System: ECa-109 cell line
Test: Antiproliferative activity against human EC109 cells after 48 hrs by MTT assay
Format: functional, cell-based
Conditions: ECa-109, 48 h

Structure (SMILES) | IC50
CCCCc1ccc(NC(=S)NCCNc2nc(SCCC)nc3c2nnn3CCc2ccccc2)cc1 | 18.9 µM
CCCSc1nc(NCCNC(=S)Nc2cccnc2)c2nnn(C3CCCC3)c2n1 | 12.6 µM

System: NCI-H1650
Test: Antiproliferative activity against human NCI-H1650 cells after 48 hrs by MTT assay
Format: functional, cell-based
Conditions: NCI-H1650, 48 h

Structure (SMILES) | IC50
CCCCc1ccc(NC(=S)NCCNc2nc(SCCC)nc3c2nnn3CCc2ccccc2)cc1 | 40.9 µM
CCCSc1nc(NCCNC(=S)Nc2cccnc2)c2nnn(C3CCCC3)c2n1 | 8.99 µM

System: MKN-45
Test: Antiproliferative activity against human MKN45 cells after 48 hrs by MTT assay
Format: functional, cell-based
Conditions: MKN-45, 48 h

Structure (SMILES) | IC50
CCCCc1ccc(NC(=S)NCCNc2nc(SCCC)nc3c2nnn3CCc2ccccc2)cc1 | > 64 µM
CCCSc1nc(NCCNC(=S)Nc2cccnc2)c2nnn(C3CCCC3)c2n1 | 13.5 µM

System: A549
Test: Antiproliferative activity against human A549 cells after 48 hrs by MTT assay
Format: functional, cell-based
Conditions: A549, 48 h

Structure (SMILES) | IC50
CCCCc1ccc(NC(=S)NCCNc2nc(SCCC)nc3c2nnn3CCc2ccccc2)cc1 | > 64 µM
CCCSc1nc(NCCNC(=S)Nc2cccnc2)c2nnn(C3CCCC3)c2n1 | 15.1 µM

System: GES1
Test: Antiproliferative activity against human GES-1 cells after 48 hrs by MTT assay
Format: cell-based
Conditions: GES1, 48 h

Structure (SMILES) | IC50
CCCCc1ccc(NC(=S)NCCNc2nc(SCCC)nc3c2nnn3CCc2ccccc2)cc1 | > 64 µM
CCCSc1nc(NCCNC(=S)Nc2cccnc2)c2nnn(C3CCCC3)c2n1 | 32.9 µM

System: MGC-803
Test: Antiproliferative activity against human MGC803 cells after 48 hrs by MTT assay
Format: functional, cell-based
Conditions: MGC-803, 48 h

Structure (SMILES) | IC50
CCCCc1ccc(NC(=S)NCCNc2nc(SCCC)nc3c2nnn3CCc2ccccc2)cc1 | 31.2 µM
CCCSc1nc(NCCNC(=S)Nc2cccnc2)c2nnn(C3CCCC3)c2n1 | 19.2 µM
